The source of these data is patent publication US12404241B2 (Celgene Corporation, priority 2018, dated 2025).

Where only a bound is given, the exact number is not on record here.

For this assay, the target named is T1, AR (Homo sapiens, UniProt P10275).
T1 construct: endogenous in cells; host or cells: VCaP cells
T1 sequence (P10275 1-920): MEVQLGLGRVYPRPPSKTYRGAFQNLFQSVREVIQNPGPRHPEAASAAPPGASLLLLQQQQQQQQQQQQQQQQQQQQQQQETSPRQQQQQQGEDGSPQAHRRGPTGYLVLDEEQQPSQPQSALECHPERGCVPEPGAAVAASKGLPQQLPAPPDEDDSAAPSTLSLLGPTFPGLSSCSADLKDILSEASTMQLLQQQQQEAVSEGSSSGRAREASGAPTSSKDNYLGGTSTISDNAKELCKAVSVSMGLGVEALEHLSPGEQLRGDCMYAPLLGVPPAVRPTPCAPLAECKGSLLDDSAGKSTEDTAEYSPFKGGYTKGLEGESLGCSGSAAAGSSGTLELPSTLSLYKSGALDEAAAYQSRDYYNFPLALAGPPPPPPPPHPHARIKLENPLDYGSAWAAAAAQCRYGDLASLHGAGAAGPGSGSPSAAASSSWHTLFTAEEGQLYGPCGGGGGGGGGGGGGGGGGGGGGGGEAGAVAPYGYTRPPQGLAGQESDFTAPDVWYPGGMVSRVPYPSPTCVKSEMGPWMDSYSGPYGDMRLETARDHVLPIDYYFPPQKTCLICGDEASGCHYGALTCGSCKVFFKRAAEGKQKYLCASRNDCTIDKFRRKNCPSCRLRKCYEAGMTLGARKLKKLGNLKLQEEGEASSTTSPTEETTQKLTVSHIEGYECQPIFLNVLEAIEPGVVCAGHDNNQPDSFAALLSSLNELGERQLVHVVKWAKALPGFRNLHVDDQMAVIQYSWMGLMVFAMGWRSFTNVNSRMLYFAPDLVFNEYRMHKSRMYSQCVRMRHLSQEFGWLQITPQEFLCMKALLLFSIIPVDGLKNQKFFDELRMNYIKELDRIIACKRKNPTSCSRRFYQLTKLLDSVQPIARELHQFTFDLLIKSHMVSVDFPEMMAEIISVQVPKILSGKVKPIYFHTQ
The assay can be described thus: VCAP AR Degradation Assay. The assay is classed as cell-based. The note with it: for Y (AR degradation efficiency, % of DMSO control): class symbols *; for DC50: class symbols A-C, read-out: DC50. The method, boiled down: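 VCaP cells treated 24 h at 37 °C with a 10-point 1:3 series (top 5 μM final; 0.1% DMSO control). Lysate AR measured by sandwich ELISA, normalized to DMSO as percent of control; DC50, EC50 and lowest AR level (Y) from four-parameter logistic fit.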

Consider `CCc1cc(N2C(=S)N(c3cnc(C#N)c(C(F)(F)F)c3)C(=O)C23CCC3)ccc1OCCN1CCN(C2(C(=O)Nc3cccc(NC4CCC(=O)NC4=O)c3)CC2)CC1` (stereo not shown) [Example 188, 1-(4-(2-(4-(7-(6-cyano-5-(trifluoromethyl)pyridin-3-yl)-8-oxo-6-thioxo-5,7-diazaspiro[3.4]octan-5-yl)-2-ethylphenoxy)ethyl)piperazin-1-yl)-N-(3-(2,6-dioxopiperidin-3-ylamino)phenyl)cyclopropanecarboxamide], for which the “Y (AR degradation efficiency, % of DMSO control)” value was “* (0<Y<=25%)” and the 50% degradation concentration (DC50) is less than 100 nM.
Turning to `CCc1cc(N2C(=S)N(c3ccc(C#N)c(C(F)(F)F)c3)C(=O)C2(C)C)cnc1OCCN1C[C@@H](C)N(CC(=O)Nc2cc(Cl)cc(NC3CCC(=O)NC3=O)c2)C[C@H]1C` (stereo partly drawn) [Example 189, N-(3-chloro-5-(2,6-dioxopiperidin-3-ylamino)phenyl)-2-((2R,5R)-4-(2-(5-(3-(4-cyano-3-(trifluoromethyl)phenyl)-5,5-dimethyl-4-oxo-2-thioxoimidazolidin-1-yl)-3-ethylpyridin-2-yloxy)ethyl)-2,5-dimethylpiperazin-1-yl)acetamide], the “Y (AR degradation efficiency, % of DMSO control)” value is “* (0<Y<=25%)” and the DC50 was less than 100 nM.
In the same order, the values of `CCc1cc(N2C(=S)N(c3cnc(C#N)c(C(F)(F)F)c3)C(=O)C23CCC3)ccc1OCCN1C[C@@H](C)N(CC(=O)Nc2cc(NC3CCC(=O)NC3=O)ccc2F)[C@@H](C)C1` (stereo partly drawn) [Example 190, 2-((2S,6R)-4-(2-(4-(7-(6-cyano-5-(trifluoromethyl)pyridin-3-yl)-8-oxo-6-thioxo-5,7-diazaspiro[3.4]octan-5-yl)-2-ethylphenoxy)ethyl)-2,6-dimethylpiperazin-1-yl)-N-(5-(2,6-dioxopiperidin-3-ylamino)-2-fluorophenyl)acetamide] are “* (0<Y<=25%)” and less than 100 nM.
For `CCc1cc(N2C(=S)N(c3cnc(C#N)c(C(F)(F)F)c3)C(=O)C2(C)C)ccc1OCCN1CCN([C@H](C)C(=O)Nc2cc(Cl)cc(NC3CCC(=O)NC3=O)c2)CC1` (stereo partly drawn) [Example 191, (2R)-N-(3-chloro-5-(2,6-dioxopiperidin-3-ylamino)phenyl)-2-(4-(2-(4-(3-(6-cyano-5-(trifluoromethyl)pyridin-3-yl)-5,5-dimethyl-4-oxo-2-thioxoimidazolidin-1-yl)-2-ethylphenoxy)ethyl)piperazin-1-yl)propanamide], the “Y (AR degradation efficiency, % of DMSO control)” value was “* (0<Y<=25%)” and the DC50 is less than 100 nM.
The like results for `CC(C)c1cc(N2C(=S)N(c3cnc(C#N)c(C(F)(F)F)c3)C(=O)C2(C)C)ccc1OCCN1C[C@@H](C)N(CC(=O)Nc2cccc(NC3CCC(=O)NC3=O)c2)C[C@H]1C` (stereo partly drawn) [Example 192, 2-((2R,5R)-4-(2-(4-(3-(6-cyano-5-(trifluoromethyl)pyridin-3-yl)-5,5-dimethyl-4-oxo-2-thioxoimidazolidin-1-yl)-2-isopropylphenoxy)ethyl)-2,5-dimethylpiperazin-1-yl)-N-(3-(2,6-dioxopiperidin-3-ylamino)phenyl)acetamide] were, in that order, “** (25%<Y<=35%)” and 100 to 500 nM.
The like results for `CC(C)c1cc(N2C(=S)N(c3ccc(C#N)c(C(F)(F)F)c3)C(=O)C2(C)C)ccc1OCCN1C[C@@H](C)N(CC(=O)Nc2cccc(NC3CCC(=O)NC3=O)c2)C[C@H]1C` (stereo partly drawn) [Example 193, 2-((2R,5R)-4-(2-(4-(3-(4-cyano-3-(trifluoromethyl)phenyl)-5,5-dimethyl-4-oxo-2-thioxoimidazolidin-1-yl)-2-isopropylphenoxy)ethyl)-2,5-dimethylpiperazin-1-yl)-N-(3-(2,6-dioxopiperidin-3-ylamino)phenyl)acetamide] were, in that order, “** (25%<Y<=35%)” and 100 to 500 nM.
For `CC(C)c1cc(N2C(=S)N(c3ccc(C#N)c(C(F)(F)F)c3)C(=O)C2(C)C)ccc1OCCN1C[C@@H](C)N(CC(=O)Nc2cc(C#N)cc(NC3CCC(=O)NC3=O)c2)[C@@H](C)C1` (stereo partly drawn) [Example 194, 2-((2S,6R)-4-(2-(4-(3-(4-cyano-3-(trifluoromethyl)phenyl)-5,5-dimethyl-4-oxo-2-thioxoimidazolidin-1-yl)-2-isopropylphenoxy)ethyl)-2,6-dimethylpiperazin-1-yl)-N-(3-cyano-5-(2,6-dioxopiperidin-3-ylamino)phenyl)acetamide], the “Y (AR degradation efficiency, % of DMSO control)” value is “* (0<Y<=25%)” and the DC50 is less than 100 nM.
In the same order, the values of `CC(C)c1cc(N2C(=S)N(c3cnc(C#N)c(C(F)(F)F)c3)C(=O)C23CCC3)ccc1OCCN1C[C@@H](C)N(CC(=O)Nc2cc(Cl)cc(NC3CCC(=O)NC3=O)c2)[C@@H](C)C1` (stereo partly drawn) [Example 195, N-(3-chloro-5-(2,6-dioxopiperidin-3-ylamino)phenyl)-2-((2S,6R)-4-(2-(4-(7-(6-cyano-5-(trifluoromethyl)pyridin-3-yl)-8-oxo-6-thioxo-5,7-diazaspiro[3.4]octan-5-yl)-2-isopropylphenoxy)ethyl)-2,6-dimethylpiperazin-1-yl)acetamide] are “* (0<Y<=25%)” and less than 100 nM.
The like results for `C[C@@H]1CN(CCOc2ccc(N3C(=S)N(c4cnc(C#N)c(C(F)(F)F)c4)C(=O)C34CCC4)cc2C2CC2)C[C@H](C)N1CC(=O)Nc1cccc(NC2CCC(=O)NC2=O)c1` (stereo partly drawn) [Example 196, 2-((2S,6R)-4-(2-(4-(7-(6-cyano-5-(trifluoromethyl)pyridin-3-yl)-8-oxo-6-thioxo-5,7-diazaspiro[3.4]octan-5-yl)-2-cyclopropylphenoxy)ethyl)-2,6-dimethylpiperazin-1-yl)-N-(3-(2,6-dioxopiperidin-3-ylamino)phenyl)acetamide] were, in that order, “* (0<Y<=25%)” and less than 100 nM.
In the same order, the values of `CC(C)c1cc(N2C(=S)N(c3ccc(C#N)c(C(F)(F)F)c3)C(=O)C2(C)C)ccc1OCCN1CCN(C2(C(=O)Nc3cccc(NC4CCC(=O)NC4=O)c3)CC2)CC1` (stereo not shown) [Example 197] are “*** (35%<Y<50%)” and 100 to 500 nM.
In the case of `C[C@@H]1CN(CCOc2ccc(N3C(=S)N(c4cnc(C#N)c(C(F)(F)F)c4)C(=O)C34CCC4)cc2C2CC2)C[C@H](C)N1CC(=O)Nc1cc(NC2CCC(=O)NC2=O)ccc1F` (stereo partly drawn) [Example 198, 2-((2S,6R)-4-(2-(4-(7-(6-cyano-5-(trifluoromethyl)pyridin-3-yl)-8-oxo-6-thioxo-5,7-diazaspiro[3.4]octan-5-yl)-2-cyclopropylphenoxy)ethyl)-2,6-dimethylpiperazin-1-yl)-N-(5-(2,6-dioxopiperidin-3-ylamino)-2-fluorophenyl)acetamide], the “Y (AR degradation efficiency, % of DMSO control)” value is “* (0<Y<=25%)” and the DC50 is less than 100 nM.
`CCc1cc(N2C(=S)N(c3ccc(C#N)c(C(F)(F)F)c3)C(=O)C2(C)C)ccc1OCCN1CCN([C@H](C)C(=O)Nc2cccc(NC3CCC(=O)NC3=O)c2)CC1` (stereo partly drawn) [Example 199, (2R)-2-(4-(2-(4-(3-(4-cyano-3-(trifluoromethyl)phenyl)-5,5-dimethyl-4-oxo-2-thioxoimidazolidin-1-yl)-2-ethylphenoxy)ethyl)piperazin-1-yl)-N-(3-(2,6-dioxopiperidin-3-ylamino)phenyl)propanamide]: the “Y (AR degradation efficiency, % of DMSO control)” value was “** (25%<Y<=35%)” and the DC50 is less than 100 nM.
The like results for `CCc1cc(N2C(=S)N(c3cnc(C#N)c(C(F)(F)F)c3)C(=O)C2(C)C)ccc1OCCN1CCN(CC(=O)Nc2cccc(NC3CCC(=O)NC3=O)c2)[C@@H](C(F)(F)F)C1` (stereo partly drawn) [Example 200, 2-((R)-4-(2-(4-(3-(6-cyano-5-(trifluoromethyl)pyridin-3-yl)-5,5-dimethyl-4-oxo-2-thioxoimidazolidin-1-yl)-2-ethylphenoxy)ethyl)-2-(trifluoromethyl)piperazin-1-yl)-N-(3-(2,6-dioxopiperidin-3-ylamino)phenyl)acetamide] were, in that order, “* (0<Y<=25%)” and less than 100 nM.
For the compound `CCc1cc(N2C(=S)N(c3cnc(C#N)c(C(F)(F)F)c3)C(=O)C2(C)C)ccc1OCCN1CCN(CC(=O)Nc2cccc(NC3CCC(=O)NC3=O)c2)[C@H](C(F)(F)F)C1` (stereo partly drawn) [Example 201, 2-((S)-4-(2-(4-(3-(6-cyano-5-(trifluoromethyl)pyridin-3-yl)-5,5-dimethyl-4-oxo-2-thioxoimidazolidin-1-yl)-2-ethylphenoxy)ethyl)-2-(trifluoromethyl)piperazin-1-yl)-N-(3-(2,6-dioxopiperidin-3-ylamino)phenyl)acetamide], the “Y (AR degradation efficiency, % of DMSO control)” value is given as “* (0<Y<=25%)” and the DC50 was less than 100 nM.

By DC50 is commonly meant the midpoint of the concentration-degradation curve.
